Patent US20050272822A1 (priority 2001, published 2005)
Counter-ions that a name gives are not always drawn.

Experiments:
[1] = system: adrenergic receptors; settings: in vitro; cited from earlier work
[2] = system: monoamine oxidase; settings: cited from earlier work
[3] = system: muscaranic receptors; settings: in vitro; cited from earlier work
[4] = system: histaminergic receptors; settings: in vitro; cited from earlier work
[5] = Stability in moist environments and in processes involving water; type: physicochemical
[6] = Water vapor sorption/desorption (dynamic vapor sorption); settings: two water sorption/desorption cycles, 25° C.
Protocol: The sample weight changes were monitored as function of the time and relative humidity. Two identical relative humidity-time experiment cycles (0 to 90% relative humidity) were performed to detect any changes in solid-state properties.

Compound	affinity for adrenergic receptors [1]	inhibitory activity on monoamine oxidase [2]	affinity for muscaranic receptors [3]	affinity for histaminergic receptors [4]	stability in moist environments ([5]; atmospheres having at least 20% relative humidity)	stability in processes involving water compared with known forms ([5]; processes involving water, such as wet granulation)	solid-state transition during dehydration/hydration cycling [6]
COc1ccc(C(CN(C)C)C2(O)CCCCC2)cc1 (stereo not shown) [venlafaxine, 1-[2-(dimethylamino)-1-(4-methoxyphenyl)ethyl]cyclohexanol]	virtually no affinity	no inhibitory activity	virtually no affinity	virtually no affinity	–	–	–
COc1ccc(C(CN(C)C)C2(O)CCCCC2)cc1 (stereo not shown) [venlafaxine hydrochloride monohydrate]	–	–	–	–	stable	more stable than known forms	reversible
